Data published in US9617267B2, “Compounds and methods for kinase modulation, and indications therefor” (Plexxikon Inc., priority 2009, dated 2017).
Read-outs that look alike come from different tables or passages of the source.

Key:
[1] = molecular target: CYP3A4(BFC) (Homo sapiens (Human), UniProt P08684); test: CYP enzyme inhibition, fluorescent substrate BFC
Procedure: (§1) CYP (Cytochrome P450) enzymes are the major drug metabolizing enzymes present in the liver. The inhibition of CYP enzyme activity (IC50) for each of CYP1A2, CYP2C19, CYP2C9, CYP2D6, CYP3A4(BFC) and CYP3A4(BQ) is determined for compounds, where inhibition of metabolism of a known substrate leads to a decrease in the fluorescence of the metabolized product. The fluorescence of the product is monitored as a function of compound concentration.
(§2) Compounds are dissolved in dimethyl sulfoxide to a concentration of 100 mM. These are diluted 1 μL into 82 μL of acetonitrile. […] These are then serially diluted 1:1 (160 μL to 160 μL co-factor mix) for a total of 10 points. A 10 μL aliquot of this final mixture is dispensed into 384 well assay plates and incubated for 10 minutes at 37° C. […] Assay plates are incubated at 37° C. […] The signal versus compound concentration is used to determine the IC50. The enzymes and substrates for this assay are obtained from BD Biosciences.

[2] = molecular target: c-Raf-1 (Homo sapiens, UniProt P04049); test: c-Raf-1 kinase activity biochemical assay (AlphaScreen, biotin-MEK1 phosphorylation)
Chain of c-Raf-1 (P04049 whole entry, looked up): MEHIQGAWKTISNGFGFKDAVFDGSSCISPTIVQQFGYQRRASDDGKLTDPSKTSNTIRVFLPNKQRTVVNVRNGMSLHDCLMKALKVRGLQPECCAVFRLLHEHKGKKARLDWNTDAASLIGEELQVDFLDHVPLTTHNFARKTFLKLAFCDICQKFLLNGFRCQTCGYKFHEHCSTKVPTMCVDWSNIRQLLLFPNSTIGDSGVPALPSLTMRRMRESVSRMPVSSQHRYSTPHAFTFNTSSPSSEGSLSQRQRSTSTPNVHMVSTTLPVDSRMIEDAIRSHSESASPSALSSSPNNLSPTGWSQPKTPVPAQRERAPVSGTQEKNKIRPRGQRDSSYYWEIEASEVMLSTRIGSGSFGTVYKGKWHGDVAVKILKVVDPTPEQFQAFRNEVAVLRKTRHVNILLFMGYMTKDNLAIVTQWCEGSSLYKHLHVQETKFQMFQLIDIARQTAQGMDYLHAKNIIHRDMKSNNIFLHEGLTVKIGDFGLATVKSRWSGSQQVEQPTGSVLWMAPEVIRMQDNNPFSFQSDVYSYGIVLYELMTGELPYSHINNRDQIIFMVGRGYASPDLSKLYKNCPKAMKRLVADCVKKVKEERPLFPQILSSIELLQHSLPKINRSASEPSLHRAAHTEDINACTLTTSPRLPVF
Procedure: (§3) Compounds to be tested are diluted in dimethyl sulfoxide to a concentration of 0.1 mM. These are serially diluted 15 μL into 30 μL of dimethyl sulfoxide seven times in 96 well plates for a total of 8 dilution points, and for each dilution point 1 μL is added to a well of an assay plate. […] The reaction is started with addition of 10 μL of 200 μM ATP (i.e. final 100 μM ATP). After incubation of the kinase reaction for 45 minutes at room temperature, 5 μL/well of Stop Solution is added (25 mM Hepes pH 7.5, 100 mM EDTA, 0.01% BSA with donor beads (Streptavidin coated beads, Perkin Elmer), acceptor beads (Protein A coated, Perkin Elmer), and anti phosphor MEK1/2 antibody (CellSignal), each at final concentration 10 μg/mL). The plates are incubated for 3 hours at room temperature and read on Envision reader (Perkin Elmer). […] The signal vs. compound concentration is used to determine the IC50.

[3] = molecular target: CYP2C9 (Homo sapiens (Human), UniProt P11712); test: CYP enzyme inhibition, fluorescent substrate (MFC)
Chain of CYP2C9 (P11712 whole entry): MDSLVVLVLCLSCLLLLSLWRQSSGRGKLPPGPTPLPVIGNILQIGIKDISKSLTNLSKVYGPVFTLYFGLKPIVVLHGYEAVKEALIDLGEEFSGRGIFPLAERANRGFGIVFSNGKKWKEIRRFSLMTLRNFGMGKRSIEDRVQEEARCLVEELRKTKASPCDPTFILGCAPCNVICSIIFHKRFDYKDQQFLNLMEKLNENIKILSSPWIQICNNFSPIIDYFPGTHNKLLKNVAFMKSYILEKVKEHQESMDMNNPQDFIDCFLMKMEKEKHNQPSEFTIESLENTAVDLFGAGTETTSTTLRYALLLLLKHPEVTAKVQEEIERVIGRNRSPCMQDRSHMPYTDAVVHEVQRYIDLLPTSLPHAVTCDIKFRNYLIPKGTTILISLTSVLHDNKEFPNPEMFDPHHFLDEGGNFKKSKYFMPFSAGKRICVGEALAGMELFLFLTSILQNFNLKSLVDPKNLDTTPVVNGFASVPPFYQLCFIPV
Procedure: as §1, §2

[4] = molecular target: CYP1A2 (Homo sapiens (Human), UniProt P05177); test: CYP enzyme inhibition, fluorescent substrate (CEC)
Chain of CYP1A2 (P05177 whole entry): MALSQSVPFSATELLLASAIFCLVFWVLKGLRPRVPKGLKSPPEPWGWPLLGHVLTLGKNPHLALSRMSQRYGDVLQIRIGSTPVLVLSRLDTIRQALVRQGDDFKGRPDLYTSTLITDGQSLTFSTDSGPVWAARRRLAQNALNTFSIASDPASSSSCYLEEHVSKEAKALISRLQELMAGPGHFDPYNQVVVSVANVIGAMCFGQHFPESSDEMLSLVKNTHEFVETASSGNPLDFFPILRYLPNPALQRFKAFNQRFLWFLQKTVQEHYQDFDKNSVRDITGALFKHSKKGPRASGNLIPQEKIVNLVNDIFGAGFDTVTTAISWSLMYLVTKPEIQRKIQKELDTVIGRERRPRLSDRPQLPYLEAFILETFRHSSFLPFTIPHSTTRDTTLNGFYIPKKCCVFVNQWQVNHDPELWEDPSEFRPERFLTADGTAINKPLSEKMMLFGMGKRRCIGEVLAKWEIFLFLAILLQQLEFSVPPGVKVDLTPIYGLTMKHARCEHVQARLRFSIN
Procedure: as §1
(§4) Compounds are dissolved in dimethyl sulfoxide to a concentration of 100 mM. These are diluted 1 μL into 82 μL of acetonitrile. An 11 μL aliquot of this solution is then added to 204 μL of cofactor mix (1.3% NADPH Regeneration system Solution A, 1.04% NADPH Regeneration system Solution B from BD Biosciences, 5% acetonitrile and 0.05% dimethyl sulfoxide). These are then serially diluted 1:1 (160 μL to 160 μL co-factor mix) for a total of 10 points. A 10 μL aliquot of this final mixture is dispensed into 384 well assay plates and incubated for 10 minutes at 37° C. Enzyme and substrate mix (10 μL; 0.5 pmol CYP1A2/5 μM CEC; 1.0 pmol CYP2C9/75 μM MFC; 0.5 pmol CYP2C19/25 μM CEC; 1.5 pmol CYP2D6/1.5 μM AMMC; 1.0 pmol CYP3A4/50 μM BFC; or 1.0 pmol CYP3A4/40 μM BQ) is added to these assay plates. Assay plates are incubated at 37° C. (CYP1A2-15 min; CYP2C9-45 min; CYP2C19, 2D6 and 3A4-30 min) and read in a Tecan Safire 2 plate reader (CYP1A2, 2C19 and 3A4 409 ex/460 em; CYP2C9 and 2D6 409 ex/530 em). The signal versus compound concentration is used to determine the IC50. The enzymes and substrates for this assay are obtained from BD Biosciences.

[5] = molecular target: CYP2D6 (Homo sapiens (Human), UniProt P10635); test: CYP enzyme inhibition, fluorescent substrate (AMMC); format: in vitro ADME; conditions: read-out: Cyp IC50 2D6
Chain of CYP2D6 (P10635 whole entry): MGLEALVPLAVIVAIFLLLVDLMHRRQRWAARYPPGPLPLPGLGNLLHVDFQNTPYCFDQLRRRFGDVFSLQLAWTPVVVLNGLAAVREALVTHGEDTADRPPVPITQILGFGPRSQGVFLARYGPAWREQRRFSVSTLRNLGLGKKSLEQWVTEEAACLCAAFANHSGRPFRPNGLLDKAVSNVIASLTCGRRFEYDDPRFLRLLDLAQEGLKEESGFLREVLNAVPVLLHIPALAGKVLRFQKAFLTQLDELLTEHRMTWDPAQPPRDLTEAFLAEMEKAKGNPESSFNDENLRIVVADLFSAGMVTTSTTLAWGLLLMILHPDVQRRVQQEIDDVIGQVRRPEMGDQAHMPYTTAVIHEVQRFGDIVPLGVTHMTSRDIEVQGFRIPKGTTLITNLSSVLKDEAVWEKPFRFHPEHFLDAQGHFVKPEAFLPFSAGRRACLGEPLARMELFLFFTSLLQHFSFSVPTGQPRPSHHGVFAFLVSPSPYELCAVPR
Procedure: as §1, §4

[6] = system: B-Raf; test: B-Raf kinase activity biochemical assay (AlphaScreen, biotin-MEK1 phosphorylation); conditions: for Biochemical activity ratio B/V600E: ratio of IC50 B-Raf / B-Raf V600E; for Biochemical activity ratio B/C: ratio of IC50 B-Raf / c-Raf-1
Procedure: as §3

[7] = molecular target: B-Raf (Homo sapiens (Human), UniProt P15056); test: as above; conditions: B-Raf
Chain of B-Raf (Homo sapiens (Human), UniProt P15056) (P15056 whole entry): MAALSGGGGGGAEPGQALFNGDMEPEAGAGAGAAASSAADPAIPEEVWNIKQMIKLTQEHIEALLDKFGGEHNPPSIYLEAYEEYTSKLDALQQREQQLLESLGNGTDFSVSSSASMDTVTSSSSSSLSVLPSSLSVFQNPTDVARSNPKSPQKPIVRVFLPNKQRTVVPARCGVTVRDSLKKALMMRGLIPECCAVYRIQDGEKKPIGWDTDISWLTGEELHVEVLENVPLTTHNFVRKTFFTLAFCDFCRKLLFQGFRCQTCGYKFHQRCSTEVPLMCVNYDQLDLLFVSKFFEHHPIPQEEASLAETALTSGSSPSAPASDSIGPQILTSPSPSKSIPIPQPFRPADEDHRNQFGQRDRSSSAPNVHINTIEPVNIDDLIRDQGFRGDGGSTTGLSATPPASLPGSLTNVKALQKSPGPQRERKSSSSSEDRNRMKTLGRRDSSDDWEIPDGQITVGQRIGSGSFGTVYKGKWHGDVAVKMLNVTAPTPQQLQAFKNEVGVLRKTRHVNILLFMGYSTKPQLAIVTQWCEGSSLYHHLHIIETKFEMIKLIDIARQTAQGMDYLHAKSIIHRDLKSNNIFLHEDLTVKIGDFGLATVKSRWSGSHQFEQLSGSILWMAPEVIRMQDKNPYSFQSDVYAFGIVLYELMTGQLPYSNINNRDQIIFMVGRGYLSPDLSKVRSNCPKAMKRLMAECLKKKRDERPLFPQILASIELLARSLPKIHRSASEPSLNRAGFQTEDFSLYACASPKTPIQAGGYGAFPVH
Procedure: as §3

[8] = molecular target: B-Raf V600E (Homo sapiens (Human), UniProt P15056, V600E); test: B-Raf V600E kinase activity biochemical assay (AlphaScreen, biotin-MEK1 phosphorylation); conditions: for IC50: B-Raf V600E; for Biochemical activity ratio V600E/C: ratio of IC50 B-Raf V600E / c-Raf-1
Chain of B-Raf V600E (P15056 whole entry V600E): as the sequence (P15056 whole entry) above, with V600E counted along it
Procedure: as §3

[9] = molecular target: CYP2C19 (Homo sapiens (Human), UniProt P33261); test: CYP enzyme inhibition, fluorescent substrate (CEC)
Chain of CYP2C19 (P33261 whole entry): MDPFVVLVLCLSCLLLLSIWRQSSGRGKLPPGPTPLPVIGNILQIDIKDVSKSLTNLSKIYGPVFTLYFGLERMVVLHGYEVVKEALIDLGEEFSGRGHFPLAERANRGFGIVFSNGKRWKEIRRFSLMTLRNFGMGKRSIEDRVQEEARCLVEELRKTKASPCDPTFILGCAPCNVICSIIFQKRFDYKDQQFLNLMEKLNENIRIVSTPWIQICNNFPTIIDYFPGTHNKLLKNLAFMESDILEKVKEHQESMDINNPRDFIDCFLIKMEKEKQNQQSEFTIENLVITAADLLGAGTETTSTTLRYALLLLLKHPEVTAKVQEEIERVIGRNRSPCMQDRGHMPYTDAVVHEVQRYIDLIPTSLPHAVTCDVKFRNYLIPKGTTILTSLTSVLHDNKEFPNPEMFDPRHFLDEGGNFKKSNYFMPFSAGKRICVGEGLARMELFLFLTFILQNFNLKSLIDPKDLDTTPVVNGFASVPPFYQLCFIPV
Procedure: as §1, §2

[10] = Relative solubility by turbidity threshold concentration in aqueous buffers (pH 1.5, 4.5, 6.8, 7.4); format: physicochemical; conditions: for turbidity threshold (L, M, H) 1.4: pH 1.4 [sic] (method: SGF pH 1.5); for turbidity threshold (L, M, H) 4.5: pH 4.5 (SIF); for turbidity threshold (L, M, H) 6.8: pH 6.8 (SIF); for turbidity threshold (L, M, H) 7.4: pH 7.4 (HEPES)
Method in brief: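 Solubility class (high >250 μM, moderate 31.3–250 μM, low <31.3 μM) comes from the concentration where absorbance reaches a 0.01 threshold, averaged across 490/535/650 nm. Samples were compound dilutions from DMSO stock, 1 μL into 99 μL buffer at pH 1.5, 4.5, 6.8 or 7.4.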

[11] = read-out: Cyp IC50 3A4(BFC), CYP3A4, substrate BFC
[12] = read-out: Cyp IC50 2C9, CYP2C9, substrate MFC
[13] = read-out: Cyp IC50 1A2, CYP1A2, substrate CEC
[14] = read-out: Cyp IC50 2C19, CYP2C19, substrate CEC

Chain of CYP3A4(BFC) (P08684 whole entry): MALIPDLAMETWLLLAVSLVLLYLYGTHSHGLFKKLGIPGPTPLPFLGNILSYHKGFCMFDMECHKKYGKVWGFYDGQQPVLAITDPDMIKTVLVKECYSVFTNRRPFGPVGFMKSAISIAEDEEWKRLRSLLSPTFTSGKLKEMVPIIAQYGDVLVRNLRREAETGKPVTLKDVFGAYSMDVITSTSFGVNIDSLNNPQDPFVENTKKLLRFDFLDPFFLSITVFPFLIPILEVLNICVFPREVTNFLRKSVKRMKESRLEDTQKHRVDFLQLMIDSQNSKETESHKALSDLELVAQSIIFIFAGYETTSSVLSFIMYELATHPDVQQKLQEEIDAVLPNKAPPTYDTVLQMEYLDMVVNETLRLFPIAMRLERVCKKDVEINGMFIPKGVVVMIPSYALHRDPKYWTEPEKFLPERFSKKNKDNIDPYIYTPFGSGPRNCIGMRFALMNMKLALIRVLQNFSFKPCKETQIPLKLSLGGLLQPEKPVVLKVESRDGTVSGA

Nc1ncnc2[nH]cc(C(=O)c3c(F)ccc(NS(=O)(=O)c4ccc(C(F)(F)F)cc4)c3F)c12 [P-1031, N-[3-(4-Amino-7H-pyrrolo[2,3-d]pyrimidine-5-carbonyl)-2,4-difluoro-phenyl]-4-trifluoromethyl-benzenesulfonamide]
IC50 [1, 11]: > 10 µM | IC50 [2]: < 0.1 µM | IC50 [3, 12]: > 10 µM | IC50 [4, 13]: > 10 µM | IC50 [5]: > 10 µM | Biochemical activity ratio B/V600E [6]: 0.1-10 | Biochemical activity ratio B/C [6]: >10 | IC50 [7]: > 0.1 µM | IC50 [8]: > 0.1 µM | Biochemical activity ratio V600E/C [8]: >10 | IC50 [9, 14]: > 10 µM | turbidity threshold (L, M, H) 1.4 [10]: M (moderate solubility if the threshold concentration is 31.3 μM to 250 μM) | turbidity threshold (L, M, H) 4.5 [10]: M (moderate solubility if the threshold concentration is 31.3 μM to 250 μM) | turbidity threshold (L, M, H) 6.8 [10]: M (moderate solubility if the threshold concentration is 31.3 μM to 250 μM) | turbidity threshold (L, M, H) 7.4 [10]: M (moderate solubility if the threshold concentration is 31.3 μM to 250 μM)

CCCc1ccc(S(=O)(=O)Nc2ccc(F)c(C(=O)c3c[nH]c4ncnc(O)c34)c2F)cc1 [P-1030, N-[2,4-Difluoro-3-(4-hydroxy-7H-pyrrolo[2,3-d]pyrimidine-5-carbonyl)-phenyl]-4-propyl-benzenesulfonamide]
IC50 [1, 11]: > 10 µM | IC50 [2]: < 0.1 µM | IC50 [3, 12]: > 10 µM | IC50 [4, 13]: > 10 µM | IC50 [5]: > 10 µM | Biochemical activity ratio B/V600E [6]: <0.1 | Biochemical activity ratio B/C [6]: 0.1-10 | IC50 [7]: > 0.1 µM | IC50 [8]: > 0.1 µM | Biochemical activity ratio V600E/C [8]: >10 | IC50 [9, 14]: > 10 µM | turbidity threshold (L, M, H) 4.5 [10]: M (moderate solubility if the threshold concentration is 31.3 μM to 250 μM) | turbidity threshold (L, M, H) 7.4 [10]: M (moderate solubility if the threshold concentration is 31.3 μM to 250 μM)

O=C(c1c(F)ccc(NS(=O)(=O)c2ccc(C(F)(F)F)cc2)c1F)c1c[nH]c2ncnc(Nc3ccccc3)c12 [P-1037, N-[2,4-Difluoro-3-(4-phenylamino-7H-pyrrolo[2,3-d]pyrimidine-5-carbonyl)-phenyl]-4-trifluoromethyl-benzenesulfonamide]
IC50 [1, 11]: > 10 µM | IC50 [2]: < 0.1 µM | IC50 [3, 12]: > 10 µM | IC50 ([4]; human, 15 min): > 10 µM | IC50 [5]: > 10 µM | Biochemical activity ratio B/V600E [6]: 0.1-10 | Biochemical activity ratio B/C [6]: >10 | IC50 [7]: < 0.1 µM | IC50 [8]: > 0.1 µM | Biochemical activity ratio V600E/C [8]: >10 | IC50 [9, 14]: < 5 µM | turbidity threshold (L, M, H) 1.4 [10]: L (low solubility if the threshold concentration is <31.3 μM) | turbidity threshold (L, M, H) 4.5 [10]: L (low solubility if the threshold concentration is <31.3 μM) | turbidity threshold (L, M, H) 6.8 [10]: L (low solubility if the threshold concentration is <31.3 μM) | turbidity threshold (L, M, H) 7.4 [10]: L (low solubility if the threshold concentration is <31.3 μM)

CCCNc1ncnc2[nH]cc(C(=O)c3c(F)ccc(NS(=O)(=O)c4ccc(C(F)(F)F)cc4)c3F)c12 [P-1032, N-[2,4-Difluoro-3-(4-propylamino-7H-pyrrolo[2,3-d]pyrimidine-5-carbonyl)-phenyl]-4-trifluoromethyl-benzenesulfonamide]
IC50 [1, 11]: > 10 µM | IC50 [2]: < 0.1 µM | IC50 [3, 12]: > 10 µM | IC50 [4, 13]: > 10 µM | IC50 [5]: > 10 µM | Biochemical activity ratio B/V600E [6]: 0.1-10 | Biochemical activity ratio B/C [6]: >10 | IC50 [7]: < 0.1 µM | IC50 [8]: < 0.1 µM | Biochemical activity ratio V600E/C [8]: >10 | IC50 [9]: 5 to 10 µM | turbidity threshold (L, M, H) 1.4 [10]: L (low solubility if the threshold concentration is <31.3 μM) | turbidity threshold (L, M, H) 4.5 [10]: L (low solubility if the threshold concentration is <31.3 μM)

CC(C)COc1ncnc2[nH]cc(C(=O)c3c(F)ccc(NS(=O)(=O)c4ccc(C(F)(F)F)cc4)c3F)c12 [P-1028, N-[2,4-Difluoro-3-(4-isobutoxy-7H-pyrrolo[2,3-d]pyrimidine-5-carbonyl)-phenyl]-4-trifluoromethyl-benzenesulfonamide]
IC50 [1, 11]: > 10 µM | IC50 [2]: < 0.1 µM | IC50 [3]: 5 to 10 µM | IC50 ([4]; human, 15 min): > 10 µM | IC50 [5]: > 10 µM | Biochemical activity ratio B/V600E [6]: 0.1-10 | Biochemical activity ratio B/C [6]: >10 | IC50 [7]: > 0.1 µM | IC50 [8]: > 0.1 µM | Biochemical activity ratio V600E/C [8]: >10 | IC50 [9, 14]: > 10 µM | turbidity threshold (L, M, H) 1.4 [10]: M (moderate solubility if the threshold concentration is 31.3 μM to 250 μM) | turbidity threshold (L, M, H) 4.5 [10]: L (low solubility if the threshold concentration is <31.3 μM) | turbidity threshold (L, M, H) 6.8 [10]: L (low solubility if the threshold concentration is <31.3 μM) | turbidity threshold (L, M, H) 7.4 [10]: M (moderate solubility if the threshold concentration is 31.3 μM to 250 μM)

O=C(c1c(F)ccc(NS(=O)(=O)c2ccc(C(F)(F)F)cc2)c1F)c1c[nH]c2ncnc(Cl)c12 [P-1016, N-[3-(4-Chloro-7H-pyrrolo[2,3-d]pyrimidine-5-carbonyl)-2,4-difluoro-phenyl]-4-trifluoromethyl-benzenesulfonamide]
IC50 [1, 11]: > 10 µM | IC50 [2]: < 0.1 µM | IC50 [3, 12]: > 10 µM | IC50 [4, 13]: > 10 µM | IC50 [5]: > 10 µM | Biochemical activity ratio B/V600E [6]: 0.1-10 | Biochemical activity ratio B/C [6]: >10 | IC50 [7]: > 0.1 µM | IC50 [8]: > 0.1 µM | Biochemical activity ratio V600E/C [8]: >10 | IC50 [9, 14]: > 10 µM | turbidity threshold (L, M, H) 1.4 [10]: L (low solubility if the threshold concentration is <31.3 μM) | turbidity threshold (L, M, H) 6.8 [10]: L (low solubility if the threshold concentration is <31.3 μM) | turbidity threshold (L, M, H) 7.4 [10]: H (high solubility if the threshold concentration is >250 μm)

CCCc1ccc(S(=O)(=O)Nc2ccc(F)c(C(=O)c3c[nH]c4ncnc(Cl)c34)c2F)cc1 [P-1034, N-[3-(4-Chloro-7H-pyrrolo[2,3-d]pyrimidine-5-carbonyl)-2,4-difluoro-phenyl]-4-propyl-benzenesulfonamide]
IC50 [1]: 5 to 10 µM | IC50 [2]: < 0.1 µM | IC50 [3, 12]: > 10 µM | IC50 ([4]; human, 15 min): > 10 µM | IC50 [5]: > 10 µM | Biochemical activity ratio B/V600E [6]: 0.1-10 | Biochemical activity ratio B/C [6]: 0.1-10 | IC50 [7]: > 0.1 µM | IC50 [8]: > 0.1 µM | Biochemical activity ratio V600E/C [8]: >10 | IC50 [9]: 5 to 10 µM | turbidity threshold (L, M, H) 1.4 [10]: M (moderate solubility if the threshold concentration is 31.3 μM to 250 μM) | turbidity threshold (L, M, H) 4.5 [10]: M (moderate solubility if the threshold concentration is 31.3 μM to 250 μM) | turbidity threshold (L, M, H) 6.8 [10]: M (moderate solubility if the threshold concentration is 31.3 μM to 250 μM) | turbidity threshold (L, M, H) 7.4 [10]: M (moderate solubility if the threshold concentration is 31.3 μM to 250 μM)
